# Measurements as given in patent US10294202B2, “Pyrrolidinones as herbicides” (FMC Corporation, priority 2013, dated 2019).
# Tests used:
# [1] = system: rice; assay: Test C flooded paddy test; type: in vivo, Oryza sativa; details: Flood
# How it was run: (§1)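 Plants at the 2-leaf stage in pots flooded to 3 cm were treated by applying compound directly to the paddy water, with depth held throughout. After 13 to 15 days in a greenhouse, response was rated visually against controls on a 0 (no effect) to 100 (complete control) scale.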
# [2] = system: sedge, umbrella; assay: Test C flooded paddy test; type: in vivo, Cyperus difformis; details: Flood
# How it was run: as §1
# [3] = system: ryegrass, Italian; assay: Test A pre-/postemergence herbicide test; type: in vivo, Lolium multiflorum
# How it was run: (§2)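 Visual 0–100 ratings (100 = complete control) made about 10 days after treatment, greenhouse-held plants compared with untreated controls. Treatments: postemergence sprays on one- to two-leaf plants (2–10 cm tall) and preemergence directed soil sprays after planting in loam–sand, chemicals formulated in non-phytotoxic solvent containing surfactant.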
# [4] = system: kochia; assay: Test A pre-/postemergence herbicide test; type: in vivo, Kochia scoparia
# How it was run: as §2
# [5] = system: blackgrass; assay: Test A postemergence herbicide test; type: in vivo, Alopecurus myosuroides
# How it was run: (§3)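 Young potted plants in a loam–sand mix, one- to two-leaf stage and 2–10 cm tall, receive the test chemical postemergence and stay in a greenhouse for approximately 10 days. Injury is then judged by eye against untreated plants, scored 0 (none) to 100 (complete control).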
# [6] = system: ragweed; assay: Test A pre-/postemergence herbicide test; type: in vivo, Ambrosia elatior
# How it was run: as §2
# [7] = system: barnyardgrass; assay: Test C flooded paddy test; type: in vivo, Echinochloa crus-galli; details: Flood
# How it was run: as §1
# [8] = system: galium; assay: Test A postemergence herbicide test; type: in vivo, Galium aparine
# How it was run: as §3
# [9] = 31 g ai/ha, scale of 0 to 100 where 0 is no effect and 100 is complete control, 13 to 15 days
# [10] = 62 g ai/ha, scale of 0 to 100 where 0 is no effect and 100 is complete control, 13 to 15 days
# [11] = 125 g ai/ha, scale of 0 to 100 where 0 is no effect and 100 is complete control, 13 to 15 days
# [12] = 125 g ai/ha, visual rating, 0 to 100 scale, 0 no effect, 100 complete control, approximately 10 days, preemergence
# [13] = Postemergence, 125 g ai/ha, 0 to 100 scale, 0 no effect, 100 complete control
# [14] = preemergence, 500 g ai/ha, 0 to 100 scale
# [15] = 125 g ai/ha, 0 to 100 scale, 0 no effect, 100 complete control
# [16] = 500 g ai/ha, 0 to 100 scale (0 no effect, 100 complete control)
# [17] = 250 g ai/ha, scale of 0 to 100 where 0 is no effect and 100 is complete control, 13 to 15 days
# [18] = Postemergence, 125 g ai/ha, visual rating on 0 to 100 scale (0 no effect, 100 complete control), approx. 10 days
# [19] = Postemergence, 500 g ai/ha, 0 to 100 scale (0 no effect, 100 complete control)
# [20] = Preemergence, 125 g ai/ha, 0 to 100 scale where 0 is no effect and 100 is complete control
# [21] = Preemergence, 500 g ai/ha, visual rating on 0 to 100 scale (0 no effect, 100 complete control)
# [22] = 125 g ai/ha, visual rating on 0 to 100 scale (0 no effect, 100 complete control), approx. 10 days
smiles,measurement,setting,value
O=C1NCC(c2ccc(F)cc2)C1C(=O)Nc1cccc(F)c1F (racemic) [Compound 119],"Plant response rating, Rice",[1]; [9],0
same,"Plant response rating, Rice",[1]; [10],0
same,"Plant response rating, Rice",[1]; [11],10
same,"Plant response rating, Rice","[1]; 250 g ai/ha, scale 0 to 100",20
same,"Plant response rating, Sedge, Umbrella",[2]; [9],0
same,"Plant response rating, Sedge, Umbrella",[2]; [10],0
same,"Plant response rating, Sedge, Umbrella",[2]; [11],0
same,"Plant response rating, Sedge, Umbrella","[2]; 250 g ai/ha, scale 0 to 100",0
same,"Plant response rating, Ryegrass, Italian",[3]; [12],20
same,"Plant response rating, Ryegrass, Italian",[3]; [13],20
same,"Ryegrass, Italian plant response rating (0 to 100 scale, 0 is no effect, 100 is complete control)","[3]; Postemergence, 500 g ai/ha",40
same,"Plant response rating, Ryegrass, Italian",[3]; [14],60
same,"Plant response rating, Kochia",[4]; [12],40
same,"Plant response rating, Kochia",[4]; [13],40
same,"Kochia plant response rating (0 to 100 scale, 0 is no effect, 100 is complete control)","[4]; Postemergence, 500 g ai/ha",50
same,"Plant response rating, Kochia",[4]; [14],60
same,"Plant response rating, Blackgrass",[5]; [15],30
same,"Plant response rating, Blackgrass",[5]; [16],50
same,"Plant response rating, Ragweed",[6]; [12],70
same,"Plant response rating, Ragweed",[6]; [13],20
same,"Ragweed plant response rating (0 to 100 scale, 0 is no effect, 100 is complete control)","[6]; Postemergence, 500 g ai/ha",30
same,"Plant response rating, Ragweed",[6]; [14],80
same,"Plant response rating, Barnyardgrass",[7]; [9],30
same,"Plant response rating, Barnyardgrass",[7]; [10],50
same,"Plant response rating, Barnyardgrass",[7]; [11],60
same,"Plant response rating, Barnyardgrass","[7]; 250 g ai/ha, scale 0 to 100",75
same,"Plant response rating, Galium",[8]; [15],30
same,"Galium plant response rating (0 to 100 scale, 0 is no effect, 100 is complete control)",[8]; 500 g ai/ha,50
O=C1NCC(c2cccc(C(F)(F)F)c2)C1C(=O)Nc1ccccc1Cl (centres unmarked) [Compound 312],"Plant response rating, Rice",[1]; [9],0
same,"Plant response rating, Rice",[1]; [10],0
same,"Plant response rating, Rice",[1]; [11],0
same,"Plant response rating, Rice",[1]; [17],0
same,"Plant response rating, Sedge, Umbrella",[2]; [9],0
same,"Plant response rating, Sedge, Umbrella",[2]; [10],0
same,"Plant response rating, Sedge, Umbrella",[2]; [11],0
same,"Plant response rating, Sedge, Umbrella",[2]; [17],0
same,"Plant response rating, Ryegrass, Italian",[3]; [18],20
same,"Plant response rating, Ryegrass, Italian",[3]; [19],40
same,"Plant response rating, Ryegrass, Italian",[3]; [20],20
same,"Ryegrass, Italian plant response rating",[3]; [21],60
same,"Plant response rating, Kochia",[4]; [18],20
same,"Plant response rating, Kochia",[4]; [19],40
same,"Plant response rating, Kochia",[4]; [20],20
same,Kochia plant response rating,[4]; [21],70
same,"Plant response rating, Blackgrass",[5]; [22],40
same,"Plant response rating, Blackgrass",[5]; [16],50
same,"Plant response rating, Ragweed",[6]; [18],20
same,"Plant response rating, Ragweed",[6]; [19],40
same,"Plant response rating, Ragweed",[6]; [20],0
same,Ragweed plant response rating,[6]; [21],30
same,"Plant response rating, Barnyardgrass",[7]; [9],0
same,"Plant response rating, Barnyardgrass",[7]; [10],0
same,"Plant response rating, Barnyardgrass",[7]; [11],30
same,"Plant response rating, Barnyardgrass",[7]; [17],60
same,"Plant response rating, Galium",[8]; [22],30
same,"Plant response rating, Galium",[8]; [16],50
